Test results reported in patent US10758534B2 (Vertex Pharmaceuticals Incorporated, priority 2014, dated 2020).

Target: T1, F508del (Homo sapiens, UniProt P13569, DEL508-508)
T1 construct: expressed in transfected cells
Test: Protocol 1: membrane potential optical assay (FLIPR III, voltage sensing dye), identification of potentiator compounds
Format: cell-based
Details: Table 3, compounds of Table 1
Outline: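 Read-out: change in voltage-sensing dye fluorescence (FLIPR III) as a measure of F508del conductance. Temperature-corrected (27° C, 24 hrs) NIH 3T3 cells expressing F508del are pretreated with potentiators, dye-loaded, then stimulated with forskolin under a chloride ion gradient using chloride-free gluconate bath.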

T1 sequence (P13569 with tags, fused parts or gaps DEL508-508): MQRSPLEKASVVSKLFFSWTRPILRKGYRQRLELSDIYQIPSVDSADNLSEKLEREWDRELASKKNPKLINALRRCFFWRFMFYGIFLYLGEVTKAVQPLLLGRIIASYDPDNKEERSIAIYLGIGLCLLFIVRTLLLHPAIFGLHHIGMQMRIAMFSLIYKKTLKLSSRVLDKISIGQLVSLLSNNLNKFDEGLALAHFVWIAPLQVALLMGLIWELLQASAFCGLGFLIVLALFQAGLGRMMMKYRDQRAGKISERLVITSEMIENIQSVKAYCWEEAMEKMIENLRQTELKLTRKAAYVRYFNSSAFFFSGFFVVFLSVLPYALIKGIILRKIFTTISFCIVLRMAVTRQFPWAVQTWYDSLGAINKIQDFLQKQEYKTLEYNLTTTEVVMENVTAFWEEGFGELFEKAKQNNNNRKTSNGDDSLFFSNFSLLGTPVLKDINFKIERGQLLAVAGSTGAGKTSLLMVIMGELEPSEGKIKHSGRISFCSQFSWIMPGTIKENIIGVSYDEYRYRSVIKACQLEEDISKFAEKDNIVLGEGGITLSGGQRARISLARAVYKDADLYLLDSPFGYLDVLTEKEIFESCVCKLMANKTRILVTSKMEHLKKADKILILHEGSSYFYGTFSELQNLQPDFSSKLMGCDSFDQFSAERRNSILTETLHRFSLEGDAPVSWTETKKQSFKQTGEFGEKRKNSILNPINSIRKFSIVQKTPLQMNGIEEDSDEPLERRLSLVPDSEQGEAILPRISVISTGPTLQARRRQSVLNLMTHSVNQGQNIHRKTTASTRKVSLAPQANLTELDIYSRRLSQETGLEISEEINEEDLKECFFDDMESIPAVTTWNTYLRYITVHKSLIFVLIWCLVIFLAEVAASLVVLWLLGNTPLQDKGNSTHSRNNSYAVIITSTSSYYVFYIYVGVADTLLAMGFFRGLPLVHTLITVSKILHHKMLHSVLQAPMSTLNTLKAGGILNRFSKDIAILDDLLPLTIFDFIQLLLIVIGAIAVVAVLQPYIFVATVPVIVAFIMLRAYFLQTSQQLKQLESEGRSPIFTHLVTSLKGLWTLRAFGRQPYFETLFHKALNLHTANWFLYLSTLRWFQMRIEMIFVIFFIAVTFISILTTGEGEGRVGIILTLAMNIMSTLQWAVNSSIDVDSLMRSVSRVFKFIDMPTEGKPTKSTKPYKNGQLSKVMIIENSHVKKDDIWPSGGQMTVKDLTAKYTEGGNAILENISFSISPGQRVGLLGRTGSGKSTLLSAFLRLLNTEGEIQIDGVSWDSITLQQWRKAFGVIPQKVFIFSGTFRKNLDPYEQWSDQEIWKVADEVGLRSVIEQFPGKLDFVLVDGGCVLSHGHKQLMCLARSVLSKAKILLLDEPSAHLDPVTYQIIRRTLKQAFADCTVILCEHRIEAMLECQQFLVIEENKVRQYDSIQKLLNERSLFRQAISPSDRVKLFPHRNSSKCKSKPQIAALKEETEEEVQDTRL

| EC30 | SMILES |
| --- | --- |
| +++ (“+++” means <3 uM) | CCOc1cccc2c1CN(Cc1c(C)cc(C)cc1C)C2(C)C(=O)NS(=O)(=O)c1cccc(NC(=O)C(F)(F)F)n1 (centres unmarked) [Compound 1616, 4-ethoxy-1-methyl-N-[[6-[(2,2,2-trifluoroacetyl)amino]-2-pyridyl]sulfonyl]-2-[(2,4,6-trimethylphenyl)methyl]isoindoline-1-carboxamide] |
| +++ (“+++” means <3 uM) | CCC/C=C/c1cc(C(=O)NS(=O)(=O)c2cccc(N)n2)c(N2C[C@@H](C)CC2(C)C)nc1C(C)(C)C [Compound 1617, N-[(6-amino-2-pyridyl)sulfonyl]-6-tert-butyl-5-[(E)-pent-1-enyl]-2-[(4S)-2,2,4-trimethylpyrrolidin-1-yl]pyridine-3-carboxamide] |
| +++ (“+++” means <3 uM) | Cc1cccc(C)c1Cn1nc(-c2ccc3c(c2)OCOC3)cc1C(=O)NS(=O)(=O)c1ccccc1 [Compound 1621, N-(benzenesulfonyl)-5-(4H-1,3-benzodioxin-7-yl)-2-[(2,6-dimethylphenyl)methyl]pyrazole-3-carboxamide] |
| +++ (“+++” means <3 uM) | Cc1nc(OC(C)C)ccc1-c1ccc(C(=O)NS(=O)(=O)c2cccc(N)n2)c(N2[C@H](C)CC[C@@H]2C)n1 [Compound 1623, N-[(6-amino-2-pyridyl)sulfonyl]-2-[(2R,5S)-2,5-dimethylpyrrolidin-1-yl]-6-(6-isopropoxy-2-methyl-3-pyridyl)pyridine-3-carboxamide] |
| +++ (“+++” means <3 uM) | C[C@@H]1CN(c2nc(C3=CCN(C(=O)OC(C)(C)C)CC3)ccc2C(=O)NS(=O)(=O)c2cccc(N)n2)C(C)(C)C1 [Compound 1624, tert-butyl 4-[5-[(6-amino-2-pyridyl)sulfonylcarbamoyl]-6-[(4S)-2,2,4-trimethylpyrrolidin-1-yl]-2-pyridyl]-3,6-dihydro-2H-pyridine-1-carboxylate] |
| +++ (“+++” means <3 uM) | CCO/C=C/c1cc(C(=O)NS(=O)(=O)c2cccc(N)n2)c(N2C[C@@H](C)CC2(C)C)nc1C(C)(C)C [Compound 1626, N-[(6-amino-2-pyridyl)sulfonyl]-6-tert-butyl-5-[(E)-2-ethoxyvinyl]-2-[(4S)-2,2,4-trimethylpyrrolidin-1-yl]pyridine-3-carboxamide] |
| +++ (“+++” means <3 uM) | C[C@@H]1CN(c2nc(C3CC3)ccc2C(=O)NS(=O)(=O)c2cccc(N)n2)C(C)(C)C1 [Compound 1627, N-[(6-amino-2-pyridyl)sulfonyl]-6-cyclopropyl-2-[(4S)-2,2,4-trimethylpyrrolidin-1-yl]pyridine-3-carboxamide] |
| +++ (“+++” means <3 uM) | CC1CN(c2nc(C(C)(C)C)c(Br)cc2C(=O)NS(=O)(=O)c2cccc(N)n2)C(C)(C)C1 (centres unmarked) [Compound 1628, N-[(6-amino-2-pyridyl)sulfonyl]-5-bromo-6-tert-butyl-2-(2,2,4-trimethylpyrrolidin-1-yl)pyridine-3-carboxamide] |
| +++ (“+++” means <3 uM) | Cc1cc(C)c(Oc2nc(C3=CCC(C(C)C)CC3)ccc2C(=O)NS(=O)(=O)c2cccc(N)n2)c(C)c1 (centres unmarked) [Compound 1630, N-[(6-amino-2-pyridyl)sulfonyl]-6-(4-isopropylcyclohexen-1-yl)-2-(2,4,6-trimethylphenoxy)pyridine-3-carboxamide] |
| ++ (“++” means between 3 uM and 10 uM) | CC(=O)C1CCC(c2ccc(C(=O)NS(=O)(=O)c3cccc(N)n3)c(Oc3c(C)cc(C)cc3C)n2)CC1 (centres unmarked) [Compound 1631, 6-(4-acetylcyclohexyl)-N-[(6-amino-2-pyridyl)sulfonyl]-2-(2,4,6-trimethylphenoxy)pyridine-3-carboxamide] |
| ++ (“++” means between 3 uM and 10 uM) | C[C@@H]1CN(c2nc(C3CCCOC3)ccc2C(=O)NS(=O)(=O)c2cccc(N)n2)C(C)(C)C1 (stereo partly drawn) [Compound 1632, N-[(6-amino-2-pyridyl)sulfonyl]-6-tetrahydropyran-3-yl-2-[(4S)-2,2,4-trimethylpyrrolidin-1-yl]pyridine-3-carboxamide] |
| +++ (“+++” means <3 uM) | C[C@@H]1CN(c2nc(C(C)(C)C)c(/C=C/C3CCCC3)cc2C(=O)NS(=O)(=O)c2cccc(N)n2)C(C)(C)C1 [Compound 1633, N-[(6-amino-2-pyridyl)sulfonyl]-6-tert-butyl-5-[(E)-2-cyclopentylvinyl]-2-[(4S)-2,2,4-trimethylpyrrolidin-1-yl]pyridine-3-carboxamide] |
| ++ (“++” means between 3 uM and 10 uM) | CC(=O)N1CCC(c2ccc(C(=O)NS(=O)(=O)c3cccc(N)n3)c(N3C[C@@H](C)CC3(C)C)n2)CC1 [Compound 1634, 6-(1-acetyl-4-piperidyl)-N-[(6-amino-2-pyridyl)sulfonyl]-2-[(4S)-2,2,4-trimethylpyrrolidin-1-yl]pyridine-3-carboxamide] |
| +++ (“+++” means <3 uM) | CC1(C)CN(c2nc(C(F)(F)F)ccc2C(=O)NS(=O)(=O)c2cccc(N)n2)C(C)(C)C1 [Compound 1635, N-[(6-amino-2-pyridyl)sulfonyl]-2-(2,2,4,4-tetramethylpyrrolidin-1-yl)-6-(trifluoromethyl)pyridine-3-carboxamide] |

| SMILES | EC30 |
| --- | --- |
| CC(C)COc1cc(-c2ccc(C(=O)NS(=O)(=O)c3cccc(N)n3)c(N3C[C@@H](C)CC3(C)C)n2)ccn1 [Compound 1618, N-[(6-amino-2-pyridyl)sulfonyl]-6-(2-isobutoxy-4-pyridyl)-2-[(4S)-2,2,4-trimethylpyrrolidin-1-yl]pyridine-3-carboxamide] | +++ (“+++” means <3 uM) |
| CC(C)COc1cc(F)cc(-c2ccc(C(=O)NS(=O)(=O)N3CCCC3)c(N3C[C@@H](C)CC3(C)C)n2)c1 [Compound 1619, 6-(3-fluoro-5-isobutoxy-phenyl)-N-pyrrolidin-1-ylsulfonyl-2-[(4S)-2,2,4-trimethylpyrrolidin-1-yl]pyridine-3-carboxamide] | +++ (“+++” means <3 uM) |
| CC(C)COc1ccn(-c2ccc(C(=O)NS(=O)(=O)c3cccc(N)n3)c(N3C[C@@H](C)CC3(C)C)n2)n1 [Compound 1620, N-[(6-amino-2-pyridyl)sulfonyl]-6-(3-isobutoxypyrazol-1-yl)-2-[(4S)-2,2,4-trimethylpyrrolidin-1-yl]pyridine-3-carboxamide] | +++ (“+++” means <3 uM) |
| COC1CCCCC1Oc1nc(-c2cc(F)cc(OCC(C)C)c2)ccc1C(=O)NS(=O)(=O)c1cccc(N)n1 (centres unmarked) [Compound 1622, N-[(6-amino-2-pyridyl)sulfonyl]-6-(3-fluoro-5-isobutoxy-phenyl)-2-(2-methoxycyclohexoxy)pyridine-3-carboxamide] | +++ (“+++” means <3 uM) |
| CC(C)COc1cc(F)cc(-c2ccc(C(=O)NS(=O)(=O)c3cccc(N)n3)c(OCCc3ccccn3)n2)c1 [Compound 1625, N-[(6-amino-2-pyridyl)sulfonyl]-6-(3-fluoro-5-isobutoxy-phenyl)-2-[2-(2-pyridyl)ethoxy]pyridine-3-carboxamide] | ++ (“++” means between 3 uM and 10 uM) |
| CC(C)COc1cc(F)cc(-c2ccc(C(=O)NS(=O)(=O)c3cccc(N)n3)c(OC3CCCC3(C)C)n2)c1 (centres unmarked) [Compound 1629, N-[(6-amino-2-pyridyl)sulfonyl]-2-(2,2-dimethylcyclopentoxy)-6-(3-fluoro-5-isobutoxy-phenyl)pyridine-3-carboxamide] | +++ (“+++” means <3 uM) |
